Where “and” joins values, the source holds several entries; their conditions need not be identical. Equal values may be shown once.
Tested on: ion channel binding site of NMDA receptors
Experiment: [^18F]PK-209 brain PET, baseline versus S-ketamine infusion
Assay type: in vivo, human
Conditions: for V ND / k 3 / K i / % ΔKi: individual subjects S6–S10; for K i: net influx rate; for % ΔKi: percentage change from the baseline scan after ketamine
Experimental: In total, 20 PET scans were acquired on a Gemini TF-64 PET/CT scanner (Philips Medical Systems, Cleveland, OH, USA). Five subjects underwent [^18F]PK-209 test–retest (TRT) scans 31–61 days apart over a period of 211 days. Another five subjects underwent baseline and ketamine scans 13–161 days apart over a period of 258 days. At the start of each scan [^18F]PK-209 was injected as an intravenous bolus with a mean injected activity of 187 ± 7 MBq. All scans were performed between 12:00 and 15:00 h to minimize diurnal variation. Duration of daylight on each scan day was calculated to investigate seasonal changes in tracer binding. Dynamic PET data were acquired for 120 min and binned into 25 time frames (1 × 15, 3 × 5, 3 × 10, 4 × 60, 2 × 150, 2 × 300, 10 × 600 s). PET was followed by a low-dose CT (30 mAs, 120 kVp) for attenuation correction and localization. Data were reconstructed using a three-dimensional row action maximum likelihood reconstruction algorithm (3-D RAMLA). Acquired PET data were normalized and corrected for dead time, randoms, scatter, attenuation, and decay.
The (S+)-isomer of ketamine (0.5 mg · kg^−1) was dissolved in NaCl 50 mL and administered intravenously in a pseudo-steady state model with a sub-acute loading dose. First, ketamine was administered for 40 min at a rate of 0.006 mg · kg^−1 · min^−1 followed by a 130 min equilibrium phase at 0.002 mg · kg^−1 · min^−1. [^18F]PK-209 injection and start of PET were performed at 10 min into the equilibrium phase, following 0.26 mg · kg^−1 administration in the preceding 50 min.
Prior to the PET studies, structural three-dimensional coronal T1-weighted magnetic resonance images (MRI) were acquired for all subjects on a 1.5T Sonata scanner (Siemens Medical Solutions, Erlangen, Germany) with 160 coronal slices using echo time 3.97 ms, repetition time 2700 ms, flip angle 8°, and voxel size 1.0 × 1.5 × 1.0 mm^3. Subject motion was checked by visual inspection of the alignment of intrasubject PET frames, and no frames were excluded due to excessive movement. T1-weighted MRI scans were co-registered to an average of the PET frames from ~ 4–70 min p.i. using VINCI software. The co-registered MRI scans were segmented into gray matter (GM), white matter, and extra-cerebral fluid, using PVE-lab. Subsequently, 68 regions of interest (ROIs), including whole brain, were derived from the Hammers atlas and used to extract GM time-activity curves (TACs). As a last step, the TACs of 60 out of the 67 ROIs were redefined into nine volume-weighted ROIs by combining the radioactivity at each timepoint according to the equation Bq¯=∑iαi×Bqi/∑iαi , where αi is the volume (in mm^3) of region i, and Bqi the counts per mm^3 of region i. The selection of ROIs was based on the widespread NMDA-R availability in the brain: frontal, temporal, occipital, and parietal cortices; hippocampus; thalamus; insula; brainstem; dorsal striatum; and cerebellum, as well as whole brain GM from the Hammers atlas. Standardized uptake values (SUV; equalling measured activity divided by injected dose per body weight) were calculated for whole brain GM.
Using the metabolite-corrected arterial plasma input function, all GM TACs were fitted to single-tissue (1T2k), two-tissue irreversible (2T3k), and reversible (2T4k) compartmental models, both with and without an additional parameter for fractional blood volume (VB). The non-metabolite-corrected arterial whole blood curve was used as input function for VB. The optimal tracer kinetic model for describing in vivo kinetics of [^18F]PK-209 was determined according to the Akaike Information Criterion (AIC). Depending on the model preference, outcome measures were the net influx constant (Ki = K1 k3/(k2 + k3)) or the distribution volume (VT=K1/k2(1+k3/k4)) . For subsequent group level analysis (e.g., TRT variability and ketamine effects), all scans were analyzed using the same, most preferred, tracer kinetic model. […]

[1] = 2T3k_VB, single scan IF, baseline scan
[2] = 2T3k_VB, single scan IF, ketamine scan
[3] = mean ketamine versus mean baseline, single scan IF

Compound: CSc1ccc(Cl)c(NC(=N)N(C)c2cccc(OC[18F])c2)c1 [[^18F]PK-209, 3-(2-chloro-5-(methylthio)phenyl)-1-(3-([^18F]fluoromethoxy)phenyl)-1-methylguanidine]
- Mean baseline K i (2T3k_VB, population IF): 0.0106 min⁻¹
- Mean ketamine K i (2T3k_VB, population IF): 0.0107 min⁻¹
- Mean baseline K 1 (2T3k_VB, single scan IF): 0.492 mL · cm^3 · min^−1
- Mean baseline K i (2T3k_VB, single scan IF): 0.0129 min⁻¹
- Mean baseline V ND (2T3k_VB, single scan IF): 9.25
- Mean baseline k 3 (2T3k_VB, single scan IF): 0.0016 min⁻¹
- Mean ketamine K 1 (2T3k_VB, single scan IF): 0.516 mL · cm^3 · min^−1
- Mean ketamine K i (2T3k_VB, single scan IF): 0.0128 min⁻¹
- Mean ketamine V ND (2T3k_VB, single scan IF): 9.22
- Mean ketamine k 3 (2T3k_VB, single scan IF): 0.0015 min⁻¹
- V ND [1]: 9.78 and 6.54 and 11.72 and 7.74 and 10.51
- k 3 [1]: 0.0005 min⁻¹ and 0.0029 min⁻¹ and 0.0007 min⁻¹ and 0.0026 min⁻¹ and 0.0014 min⁻¹
- V ND [2]: 9.66 and 9.75 and 10.30 and 6.56 and 9.84
- k 3 [2]: 0.0014 min⁻¹ and 0.0012 min⁻¹ and 0.0008 min⁻¹ and 0.0020 min⁻¹
- Mean baseline K i (2T3k_VB, within-subject IF): 0.0147 min⁻¹
- Mean ketamine K i (2T3k_VB, within-subject IF): 0.0162 min⁻¹
- mean SUV90–120 (baseline scans): 1.53
- mean SUVAUC (baseline scans): 289 ± 51 SUV·min
- increase in mean SUV90–120 from baseline to ketamine scans (in vivo): 10%
- increase in whole brain SUVAUC following ketamine administration (individual subjects 6–10): 27% and 1% (2×) and 17% and 8%
- mean SUV90–120 (ketamine scans): 1.68
- mean SUVAUC (ketamine scans): 321 ± 66 SUV·min
- % Change of mean K i (mean ketamine versus mean baseline, population IF): 1%
- % Change of mean K 1 [3]: 5%
- % Change of mean K i [3]: −1%
- % Change of mean k 3 [3]: −9%
- % Change of mean K i (mean ketamine versus mean baseline, within-subject IF): 10%
- K i (2T3k_VB, population IF, baseline scan): 0.0071 min⁻¹ and 0.0150 min⁻¹ and 0.0183 min⁻¹ and 0.0114 min⁻¹ and 0.0011 min⁻¹
- K i (2T3k_VB, population IF, ketamine scan): 0.0152 min⁻¹ and 0.0162 min⁻¹ and 0.0167 min⁻¹ and 0.0044 min⁻¹ and 0.0010 min⁻¹
- K i [1]: 0.0046 min⁻¹ and 0.0182 min⁻¹ and 0.0083 min⁻¹ and 0.0193 min⁻¹ and 0.0143 min⁻¹
- K i [2]: 0.0129 min⁻¹ and 0.0118 min⁻¹ and 0.0084 min⁻¹ and 0.0124 min⁻¹ and 0.0186 min⁻¹
- K i (2T3k_VB, within-subject IF, baseline scan): 0.0038 min⁻¹ and 0.0170 min⁻¹ and 0.0220 min⁻¹ and 0.0200 min⁻¹ and 0.0105 min⁻¹
- K i (2T3k_VB, within-subject IF, ketamine scan): 0.0128 min⁻¹ and 0.0169 min⁻¹ and 0.0201 min⁻¹ and 0.0118 min⁻¹ and 0.0192 min⁻¹
- % ΔKi (population IF): 113% and 8% and −9% and −62% and −10%
- % ΔKi (single scan IF): 182% and 1% and 30%
- % ΔKi (within-subject IF): 237% and 0% and 83%
- decrease in K1 after ketamine (subjects 8 and 9, respectively): 18% and 11%

— PMC6063804 (EJNMMI Research, 2018)
